Assay results: patent publication US11845730B2, “1,3-substituted cyclobutyl derivatives and uses thereof” (Novartis AG, priority 2021, dated 2023)
Where a name gives a salt, the structure may show the parent alone.

Biological target: human TRPV1 (Homo sapiens (Human), UniProt Q8NER1)
Details: read-out: IC50 (μM), antagonist effect against human TRPV1; CHO cells expressing human TrpV1; stimulated with 2.5 μM NADA (EC80); mean of at least three independent experiments

Chain of human TRPV1 (Q8NER1 whole entry): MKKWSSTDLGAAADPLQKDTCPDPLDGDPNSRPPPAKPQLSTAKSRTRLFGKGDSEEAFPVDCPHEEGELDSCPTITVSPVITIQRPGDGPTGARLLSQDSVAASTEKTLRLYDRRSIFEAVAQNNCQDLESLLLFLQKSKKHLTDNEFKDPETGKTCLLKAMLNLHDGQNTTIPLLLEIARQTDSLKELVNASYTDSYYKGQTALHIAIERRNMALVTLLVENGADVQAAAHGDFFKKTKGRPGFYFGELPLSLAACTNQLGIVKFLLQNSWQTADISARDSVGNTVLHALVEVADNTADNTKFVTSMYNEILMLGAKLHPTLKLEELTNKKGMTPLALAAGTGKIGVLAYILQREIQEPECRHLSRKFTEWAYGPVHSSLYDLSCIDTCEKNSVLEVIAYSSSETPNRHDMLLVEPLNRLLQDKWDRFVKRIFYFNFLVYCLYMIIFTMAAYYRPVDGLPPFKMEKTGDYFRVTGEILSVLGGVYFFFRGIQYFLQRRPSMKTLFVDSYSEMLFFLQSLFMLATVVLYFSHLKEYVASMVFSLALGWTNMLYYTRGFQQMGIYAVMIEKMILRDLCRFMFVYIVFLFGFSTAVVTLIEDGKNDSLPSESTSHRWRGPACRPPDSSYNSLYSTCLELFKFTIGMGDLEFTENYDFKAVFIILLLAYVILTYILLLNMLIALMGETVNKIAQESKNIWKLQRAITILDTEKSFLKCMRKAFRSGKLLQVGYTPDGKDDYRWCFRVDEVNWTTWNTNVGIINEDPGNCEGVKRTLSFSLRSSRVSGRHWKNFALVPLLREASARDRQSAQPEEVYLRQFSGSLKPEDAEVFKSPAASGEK

Q: Which IC50 does the source give for `C[C@]1(NCc2c(F)ccc3cnccc23)C[C@@H](Oc2ccc(F)c(C(F)(F)F)c2)C1` [Example 68 cis, (1s,3s)-3-(4-fluoro-3-(trifluoromethyl)phenoxy)-N-((6-fluoroisoquinolin-5-yl)methyl)-1-methylcyclobutan-1-amine] here?
A: The IC50 was 333 nM.

Q: For `OCC[C@H](O)c1cc(F)c(CN[C@H]2C[C@H](Oc3ccc(F)c(C(F)(F)F)c3)C2)c2ccncc12` (single isomer, unassigned; peak 1) [Example 9 peak 1], which IC50 is on record?
A: Its IC50 is 0.09 nM.

Q: How did the IC50 turn out when `C[C@]1(NCc2c(F)ccc3cnccc23)C[C@H](Oc2ccc(F)c(C(F)(F)F)c2)C1` [Example 68 trans, (1r,3r)-3-(4-fluoro-3-(trifluoromethyl)phenoxy)-N-((6-fluoroisoquinolin-5-yl)methyl)-1-methylcyclobutan-1-amine] was run?
A: Its IC50 is 12.9 nM.

Q: How did the IC50 turn out when `Fc1cc(O[C@H]2C[C@H](NCc3c(F)ccc4cnccc34)C2)ccc1OC(F)F` [Example 51, (1r,3r)-3-(4-(difluoromethoxy)-3-fluorophenoxy)-N-((6-fluoroisoquinolin-5-yl)methyl)cyclobutan-1-amine] was run?
A: The IC50 was 117 nM.

Q: Which IC50 does the source give for `OCc1cc(F)c(CN[C@H]2C[C@H](Oc3ccnc(C(F)(F)F)c3)C2)c2ccncc12` [Example 90, (6-fluoro-5-((((1r,3r)-3-((2-(trifluoromethyl)pyridin-4-yl)oxy)cyclobutyl)amino)methyl)isoquinolin-8-yl)methanol] here?
A: Its IC50 is 874 nM.

Q: How did the IC50 turn out when `Fc1ccc2ccc(O[C@H]3C[C@H](NCc4c(F)ccc5cnccc45)C3)cc2c1` [Example 32, (1r,3r)-N-((6-fluoroisoquinolin-5-yl)methyl)-3-((7-fluoronaphthalen-2-yl)oxy)cyclobutan-1-amine, HCl] was run?
A: Its IC50 is 102 nM.

Q: For `Fc1ccc(CO[C@H]2C[C@H](NCc3c(F)ccc4cnccc34)C2)cc1F` [Example 78, (1r,3r)-3-((3,4-difluorobenzyl)oxy)-N-((6-fluoroisoquinolin-5-yl)methyl)cyclobutan-1-amine], which IC50 is on record?
A: Its IC50 is 770 nM.

Q: For `N#Cc1ccc(O[C@H]2C[C@H](NCc3c(F)ccc4cnccc34)C2)c(F)n1` [Example 75, 6-fluoro-5-((1r,3r)-3-(((6-fluoroisoquinolin-5-yl)methyl)amino)cyclobutoxy)picolinonitrile, HCl], which IC50 is on record?
A: Its IC50 is 269 nM.

Q: Which IC50 does the source give for `Fc1cc(F)cc(O[C@H]2C[C@H](NCc3c(F)ccc4cnccc34)C2)c1` [Example 82, (1r,3r)-3-(3,5-difluorophenoxy)-N-((6-fluoroisoquinolin-5-yl)methyl)cyclobutan-1-amine, HCl] here?
A: The IC50 was 169 nM.

Q: For `Fc1ccc(O[C@H]2C[C@H](NCc3cccc4cnccc34)C2)cc1Cl` [Example 28, (1r,3r)-3-(3-chloro-4-fluorophenoxy)-N-(isoquinolin-5-ylmethyl)cyclobutan-1-amine, HCl], which IC50 is on record?
A: Its IC50 is 280 nM.

Q: `OCC(O)c1cc(F)c(CN[C@H]2C[C@H](Oc3ccc(F)c(C(F)(F)F)c3)C2)c2ccncc12` (mixture of isomers) [Example 7 racemic, 1-(6-fluoro-5-((((1r,3r)-3-(4-fluoro-3-(trifluoromethyl)phenoxy)cyclobutyl)amino)methyl)isoquinolin-8-yl)ethane-1,2-diol] was tested. Which IC50 did it give?
A: The IC50 was 10.4 nM.

Q: `Fc1ccc2cnccc2c1CN[C@H]1C[C@H](Oc2ccc(S(F)(F)(F)(F)F)cc2)C1` [Example 83, (1r,3r)-N-((6-fluoroisoquinolin-5-yl)methyl)-3-(4-(pentafluoro-λ^6-sulfaneyl)phenoxy)cyclobutan-1-amine, HCl] was tested. Which IC50 did it give?
A: The IC50 was 207 nM.

Q: For `OCCc1cc(F)c(CN[C@H]2C[C@H](Oc3ccc(F)c(C(F)(F)F)c3)C2)c2ccncc12` [Example 10, 2-(6-fluoro-5-((((1r,3r)-3-(4-fluoro-3-(trifluoromethyl)phenoxy)cyclobutyl)amino)methyl)isoquinolin-8-yl)ethan-1-ol, HCl], which IC50 is on record?
A: The IC50 was 166 nM.

Q: Which IC50 does the source give for `OC(CC(F)(F)F)c1cc(F)c(CN[C@H]2C[C@H](Oc3ccc(F)c(C(F)(F)F)c3)C2)c2ccncc12` (some centres unmarked) [Example 11, 3,3,3-trifluoro-1-(6-fluoro-5-((((1r,3r)-3-(4-fluoro-3-(trifluoromethyl)phenoxy)cyclobutyl)amino)methyl)isoquinolin-8-yl)propan-1-ol] here?
A: The IC50 was 395 nM.

Q: Which IC50 does the source give for `Fc1ccc2cnccc2c1CN[C@H]1C[C@H](Oc2cccc(C3CC3)c2)C1` [Example 88, (1r,3r)-3-(3-cyclopropylphenoxy)-N-((6-fluoroisoquinolin-5-yl)methyl)cyclobutan-1-amine, HCl] here?
A: Its IC50 is 95.2 nM.

Q: Which IC50 does the source give for `Fc1ccc2cnccc2c1CN[C@H]1C[C@H](Oc2ccc(OC(F)F)cc2)C1` [Example 30, (1r,3r)-3-(4-(difluoromethoxy)phenoxy)-N-((6-fluoroisoquinolin-5-yl)methyl)cyclobutan-1-amine, HCl] here?
A: The IC50 was 186 nM.

Q: With `CCOC(=O)c1ccc(O[C@H]2C[C@H](NCc3c(F)ccc4cnccc34)C2)cc1` [Example 80, ethyl 4-((1r,3r)-3-(((6-fluoroisoquinolin-5-yl)methyl)amino)cyclobutoxy)benzoate] as the molecule, how does the IC50 read?
A: The IC50 was 980 nM.

Q: Which IC50 does the source give for `Fc1ccc2cnccc2c1CN[C@H]1C[C@H](Oc2cncc(C(F)(F)F)c2)C1` [Example 95, (1r,3r)-N-((6-fluoroisoquinolin-5-yl)methyl)-3-((5-(trifluoromethyl)pyridin-3-yl)oxy)cyclobutan-1-amine, HCl] here?
A: The IC50 was 323 nM.

Q: With `OC[C@@H](O)c1cc(F)c(CN[C@H]2C[C@H](Oc3ccc(F)c(C(F)(F)F)c3)C2)c2ccncc12` (single isomer, unassigned; peak 1) [Example 7 peak 1] as the molecule, how does the IC50 read?
A: The IC50 was 0.62 nM.

Q: With `CCOC(=O)c1cc(O[C@H]2C[C@H](NCc3c(F)ccc4cnccc34)C2)ccc1C(F)(F)F` [Example 60, ethyl 5-((1r,3r)-3-(((6-fluoroisoquinolin-5-yl)methyl)amino)cyclobutoxy)-2-(trifluoromethyl)benzoate] as the molecule, how does the IC50 read?
A: Its IC50 is 320 nM.

Q: With `Fc1cc(O[C@H]2C[C@H](NCc3c(F)ccc4cnccc34)C2)cnc1F` [Example 57, (1r,3r)-3-((5,6-difluoropyridin-3-yl)oxy)-N-((6-fluoroisoquinolin-5-yl)methyl)cyclobutan-1-amine] as the molecule, how does the IC50 read?
A: The IC50 was 656 nM.

Q: How did the IC50 turn out when `Cc1ccc2cnccc2c1CN[C@H]1C[C@H](Oc2ccc(C(F)(F)F)nc2)C1` [Example 2, (1r,3r)-N-((6-methylisoquinolin-5-yl)methyl)-3-((6-(trifluoromethyl)pyridin-3-yl)oxy)cyclobutan-1-amine, HCl] was run?
A: Its IC50 is 711 nM.

Q: Which IC50 does the source give for `Fc1ccc2cnccc2c1CN[C@H]1C[C@H](Oc2cccc(S(F)(F)(F)(F)F)c2)C1` [Example 33, (1r,3r)-N-((6-fluoroisoquinolin-5-yl)methyl)-3-(3-(pentafluoro-λ^6-sulfaneyl)phenoxy)cyclobutan-1-amine, HCl] here?
A: Its IC50 is 15.4 nM.

Q: `Nc1cc2c(CN[C@H]3C[C@H](Oc4ccc(C(F)(F)F)nc4)C3)c(F)ccc2cn1` [Example 17, 6-fluoro-5-((((1r,3r)-3-((6-(trifluoromethyl)pyridin-3-yl)oxy)cyclobutyl)amino)methyl)isoquinolin-3-amine, HCl] was tested. Which IC50 did it give?
A: The IC50 was 130 nM.

Q: `Fc1ccc(O[C@H]2C[C@H](NCc3c(F)ccc4cnccc34)C2)cc1OC(F)(F)F` [Example 38, (1r,3r)-3-(4-fluoro-3-(trifluoromethoxy)phenoxy)-N-((6-fluoroisoquinolin-5-yl)methyl)cyclobutan-1-amine, HCl] was tested. Which IC50 did it give?
A: Its IC50 is 51.4 nM.

Q: For `Fc1ccc(S[C@H]2C[C@H](NCc3c(F)ccc4cnccc34)C2)cc1C(F)(F)F` [Example 100, (1r,3r)-3-((4-fluoro-3-(trifluoromethyl)phenyl)thio)-N-((6-fluoroisoquinolin-5-yl)methyl)cyclobutan-1-amine, HCl], which IC50 is on record?
A: Its IC50 is 74 nM.

Q: `Fc1ccc(O[C@H]2C[C@H](NCc3c(F)ccc4cnccc34)C2)cc1OC(F)F` [Example 50, (1r,3r)-3-(3-(difluoromethoxy)-4-fluorophenoxy)-N-((6-fluoroisoquinolin-5-yl)methyl)cyclobutan-1-amine] was tested. Which IC50 did it give?
A: The IC50 was 80.6 nM.

Q: How did the IC50 turn out when `CN(C)c1ccc2cnccc2c1CN[C@H]1C[C@H](Oc2ccc(F)c(C(F)(F)F)c2)C1` [Example 81, 5-((((1r,3r)-3-(4-fluoro-3-(trifluoromethyl)phenoxy)cyclobutyl)amino)methyl)-N,N-dimethylisoquinolin-6-amine, HCl] was run?
A: Its IC50 is 255 nM.

Q: Which IC50 does the source give for `Fc1cc(CO[C@H]2C[C@H](NCc3c(F)ccc4cnccc34)C2)ccc1C(F)(F)F` [Example 64, (1r,3r)-3-((3-fluoro-4-(trifluoromethyl)benzyl)oxy)-N-((6-fluoroisoquinolin-5-yl)methyl)cyclobutan-1-amine] here?
A: Its IC50 is 163 nM.

Q: How did the IC50 turn out when `OCCC(CO)c1cc(F)c(CN[C@H]2C[C@H](Oc3ccc(F)c(C(F)(F)F)c3)C2)c2ccncc12` (some centres unmarked) [Example 77, 2-(6-fluoro-5-((((1r,3r)-3-(4-fluoro-3-(trifluoromethyl)phenoxy)cyclobutyl)amino)methyl)isoquinolin-8-yl)butane-1,4-diol] was run?
A: Its IC50 is 691 nM.

Q: For `Fc1ccc2cnccc2c1CN[C@H]1C[C@H](Oc2ccc(C(F)(F)F)nc2)C1` [Example 94, (1r,3r)-N-((6-fluoroisoquinolin-5-yl)methyl)-3-((6-(trifluoromethyl)pyridin-3-yl)oxy)cyclobutan-1-amine, HCl], which IC50 is on record?
A: Its IC50 is 193 nM.

Q: For `Fc1ccc2cnccc2c1CN[C@H]1C[C@H](Oc2ccc(C(F)(F)F)nc2F)C1` [Example 58, (1r,3r)-3-((2-fluoro-6-(trifluoromethyl)pyridin-3-yl)oxy)-N-((6-fluoroisoquinolin-5-yl)methyl)cyclobutan-1-amine], which IC50 is on record?
A: Its IC50 is 82.9 nM.

Q: With `NS(=O)(=O)NCC(O)c1cc(F)c(CN[C@H]2C[C@H](Oc3ccc(F)c(C(F)(F)F)c3)C2)c2ccncc12` (some centres unmarked) [Example 67, N-(2-(6-fluoro-5-((((1r,3r)-3-(4-fluoro-3-(trifluoromethyl)phenoxy)cyclobutyl)amino)methyl)isoquinolin-8-yl)-2-hydroxyethyl) sulfuric diamide] as the molecule, how does the IC50 read?
A: The IC50 was 3.77 nM.

Q: For `FCC(F)c1cc(O[C@H]2C[C@H](NCc3c(F)ccc4cnccc34)C2)ccc1F` (some centres unmarked) [Example 40, (1r,3r)-3-(3-(1,2-difluoroethyl)-4-fluorophenoxy)-N-((6-fluoroisoquinolin-5-yl)methyl)cyclobutan-1-amine], which IC50 is on record?
A: Its IC50 is 124 nM.

Q: For `Nc1cc2c(CN[C@H]3C[C@H](Oc4ccc(F)c(C(F)(F)F)c4)C3)c(F)cc([C@H](O)CO)c2cn1` (single isomer, unassigned; peak 2) [Example 21 peak 2], which IC50 is on record?
A: The IC50 was 11.3 nM.
